The results in this text go back to PubChem BioAssay (NCI).

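96-well plates; 48 h exposure; 5 concentrations. Endpoints by linear interpolation between flanking doses. Not reached: highest tested concentration assigned. GI50: concentration for 50% inhibition of growth. TGI: concentration producing complete growth inhibition.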 Bounds are passed on as bounds.

Some test systems named below: ACHN renal; SR leukemia; SW-620 colon; OVCAR-5 ovarian; HCT-116 colon; M14 melanoma; COLO 205 colon; HOP-62 NSCLC; T-47D breast; NCI-H226 lung.
What all share (assay): DTP human tumour cell line panel, 48 h

In the case of `C[C@]12CC[C@@H]3c4ccc(O)cc4CC[C@H]3[C@@H]1CC(Cc1ccccc1)(Cc1ccccc1)C2=O`, the GI50 – broadly, the concentration at which growth is held to half of that of the control – is 14.5 µM in the experiment with ACHN renal; 4.87 µM in the experiment with SR leukemia; 14.2 µM in the experiment with SW-620 colon; 17.2 µM in the experiment with OVCAR-5 ovarian; 8.59 µM in the experiment on HCT-116 colon; 13.1 µM with M14 melanoma. Moreover, the GI50 was 13.4 µM in the experiment on COLO 205 colon, 17.7 µM with HOP-62 NSCLC, 11 µM in the experiment with T-47D breast and 16 µM in the experiment on NCI-H226 lung. Further, the total growth inhibition concentration (TGI) – broadly, the concentration at which net growth stops – amounted to 27.9 µM with ACHN renal; 36.1 µM in the experiment on SR leukemia; 30 µM in the experiment on SW-620 colon; 31.5 µM with OVCAR-5 ovarian; 20.7 µM in the experiment with HCT-116 colon; 26.2 µM with M14 melanoma. In addition, the TGI with COLO 205 colon stood at 31.9 µM; with HOP-62 NSCLC, 32.9 µM; in the experiment on T-47D breast, 34.6 µM; in the experiment on NCI-H226 lung it was 31.3 µM.

With `O=c1cc(-c2ccccc2)oc2c(O)c(O)ccc12`, the GI50 is 5.69 µM in the experiment on ACHN renal; 3.35 µM with SR leukemia; 6.66 µM in the experiment on SW-620 colon; 22 µM in the experiment on OVCAR-5 ovarian; 4.01 µM in the experiment with HCT-116 colon; 9.55 µM with M14 melanoma. For the same molecule, the GI50 with COLO 205 colon was 18.3 µM; in the experiment on HOP-62 NSCLC it was 7.08 µM; with T-47D breast, 16.9 µM; in the experiment on NCI-H226 lung, 21 µM. In addition, the total growth inhibition concentration (TGI) with ACHN renal was more than 100 µM; in the experiment on SR leukemia it was more than 100 µM; in the experiment on SW-620 colon it was more than 100 µM; in the experiment on OVCAR-5 ovarian, more than 100 µM; in the experiment on HCT-116 colon, more than 100 µM; with M14 melanoma, 41.4 µM. Further, the TGI was 53.9 µM with COLO 205 colon, more than 100 µM in the experiment with HOP-62 NSCLC, more than 100 µM in the experiment with T-47D breast and more than 100 µM in the experiment with NCI-H226 lung.

In the case of `CCCCNC(=O)Oc1ccc(/C(=C(\C)c2ccc(OC)cc2)c2ccc(OCCN3CCCCC3)cc2)cc1`, the GI50 with ACHN renal is 3.12 µM; with SR leukemia, 1.59 µM; in the experiment on SW-620 colon it was 2.45 µM; in the experiment on OVCAR-5 ovarian it was 7.27 µM; with HCT-116 colon it was 1.15 µM; in the experiment on M14 melanoma, 1.7 µM. In addition, the GI50 was 2.07 µM in the experiment on COLO 205 colon, 3.15 µM with HOP-62 NSCLC, 1.24 µM with T-47D breast and 7.77 µM in the experiment with NCI-H226 lung. In addition, the TGI was 10.7 µM with ACHN renal; 4.63 µM in the experiment on SR leukemia; 6.15 µM in the experiment on SW-620 colon; 23.2 µM in the experiment on OVCAR-5 ovarian; 2.38 µM in the experiment with HCT-116 colon; 3.23 µM in the experiment on M14 melanoma. In addition, the TGI with COLO 205 colon turned out to be 4.63 µM; in the experiment with HOP-62 NSCLC it was 10.7 µM; with T-47D breast it was 6.37 µM; with NCI-H226 lung it was 27.9 µM.

For the molecule `N[C@@H](Cc1c[nH]c2ccccc12)C(=O)NC1CCN(Cc2c[nH]c3ccc(Cl)cc23)CC1`, the GI50 was 13.4 µM in the experiment on ACHN renal; 2.33 µM with SR leukemia; 4.79 µM in the experiment on SW-620 colon; 5.14 µM in the experiment on OVCAR-5 ovarian; 3.87 µM in the experiment on HCT-116 colon; 6.4 µM with M14 melanoma. The GI50 in the experiment on COLO 205 colon was 2.11 µM; in the experiment on HOP-62 NSCLC, 11 µM; with T-47D breast, 4.65 µM; with NCI-H226 lung it was 15.4 µM. The concentration for total growth inhibition (TGI) in the experiment with ACHN renal amounted to 27.7 µM; in the experiment on SR leukemia, 6.46 µM; in the experiment with SW-620 colon, 16.8 µM; in the experiment with OVCAR-5 ovarian, 20.8 µM; in the experiment on HCT-116 colon it was 12.6 µM; with M14 melanoma, 19.5 µM. Moreover, the TGI with COLO 205 colon came out at 4.65 µM; with HOP-62 NSCLC it was 24.8 µM; in the experiment with T-47D breast, 20 µM; in the experiment on NCI-H226 lung, 34.1 µM.

For the molecule `COc1ccc2c(c1)C(=O)/C(=C/c1ccc(O)cc1)O2`, the GI50 with ACHN renal was 4 µM; in the experiment on SR leukemia, 1.79 µM; in the experiment on SW-620 colon, 3.34 µM; with OVCAR-5 ovarian, 19.2 µM; with HCT-116 colon, 4.42 µM; with M14 melanoma it was 15.3 µM. The GI50 was 2.77 µM in the experiment with COLO 205 colon, 55.2 µM with HOP-62 NSCLC, 7.27 µM in the experiment with T-47D breast and 25.7 µM in the experiment with NCI-H226 lung. Further, the TGI in the experiment with ACHN renal came out at 10.9 µM; with SR leukemia, 4.71 µM; with SW-620 colon, 8.99 µM; with OVCAR-5 ovarian, 38.5 µM; in the experiment on HCT-116 colon, 18.2 µM; in the experiment with M14 melanoma, 34 µM. For the same molecule, the TGI in the experiment with COLO 205 colon is 8.97 µM; with HOP-62 NSCLC it was more than 100 µM; in the experiment with T-47D breast, 37.6 µM; in the experiment on NCI-H226 lung it was 79 µM.

As for `O=C(N/N=C/c1ccc([N+](=O)[O-])cc1)c1ccccc1Nc1ccnc(C(F)(F)F)c1`, the GI50 was 7.89 µM in the experiment with ACHN renal; 1.5 µM in the experiment with SR leukemia; 13.3 µM in the experiment with SW-620 colon; 24.6 µM in the experiment on OVCAR-5 ovarian; 20 µM in the experiment with HCT-116 colon; 19.2 µM in the experiment with M14 melanoma. The GI50 in the experiment with COLO 205 colon was 18.2 µM; in the experiment on HOP-62 NSCLC it was 31.2 µM; in the experiment on T-47D breast, 21.6 µM; in the experiment with NCI-H226 lung it was 15.5 µM. For the same molecule, the concentration for total growth inhibition (TGI) with ACHN renal is 73 µM; in the experiment with SR leukemia, 20.2 µM; in the experiment on SW-620 colon it was 88.1 µM; with OVCAR-5 ovarian it was more than 100 µM; with HCT-116 colon, 70.2 µM; in the experiment with M14 melanoma, 58.7 µM. Moreover, the TGI with COLO 205 colon worked out at 39.8 µM; in the experiment with HOP-62 NSCLC it was 95.1 µM; in the experiment on T-47D breast it was 82.4 µM; with NCI-H226 lung, 74.3 µM.

`O=c1oc2ccc(F)cc2c(=O)n1-c1ccc(I)cc1F`: the GI50 with ACHN renal is 0.43 µM; in the experiment with SR leukemia, 0.388 µM; with SW-620 colon, 0.584 µM; with OVCAR-5 ovarian, 3.4 µM; with HCT-116 colon, 0.387 µM; in the experiment with M14 melanoma it was 0.49 µM. Also, the GI50 with COLO 205 colon was 2.67 µM; in the experiment with HOP-62 NSCLC, 0.916 µM; in the experiment with T-47D breast, 0.29 µM; in the experiment with NCI-H226 lung it was 0.472 µM. The TGI in the experiment with ACHN renal is 7.39 µM; in the experiment with SR leukemia, 11.1 µM; with SW-620 colon, 13.3 µM; in the experiment with OVCAR-5 ovarian, more than 54.5 µM; in the experiment on HCT-116 colon, 2.03 µM; in the experiment on M14 melanoma, 4.27 µM. For the same molecule, the TGI in the experiment with COLO 205 colon came out at 8.82 µM; with HOP-62 NSCLC, 14.9 µM; with T-47D breast, 9.24 µM; in the experiment on NCI-H226 lung it was 4.5 µM.
